Experimental data as given in patent US20150218252A1, “SELF-ASSEMBLING PEPTIDES, PEPTIDE NANOSTRUCTURES AND USES THEREOF” (President and Fellows of Harvard College, priority 2012, published 2015).
Residues, ends and D or L forms follow the SMILES beside them.

Assays:
[1] = Cell viability (CellTiter-Blue) of cells cultured with peptides / peptide nanoparticles; type: cell-based; settings: mouse, murine breast cancer cells (4T1 and M6 cells); after at least about 24 hours or longer in culture; data not shown; read-out: viable cells
Procedure: The viability of cells incubated with various concentrations of peptide constructs and/or resulting peptide nanoparticles were evaluated.
To assess effects of the peptides and/or peptide nanostructures described herein on cell viability, cells were grown to confluence in gelatin 96-well plates, following which they were either left untreated or treated with blank or one or more embodiments of the peptide nanoparticles (˜25 mg/ml) for about 18 hours. CellTiter-Blue® reagent was then added to each well and, following 4 hour incubation at ˜37° C., the fluorescence signal was measured using a fluorescence multiwell plate reader (Victor3™, PerkinElmer, Mass., USA). All fluorescent intensity measurements were then normalized with respect to the untreated 4T1 mouse mammary carcinoma cells.

[2] = Stability of self-assembled peptide nanoparticles determined by DLS; type: physicochemical; settings: for particle stability / time particles stable before disaggregation: DLS; for time particles stable before disaggregation: formed in cold deionized water; for particle stability compared to FF and YF constructs: function of residue at X4, data not shown
Procedure: (§1) The self-assembled peptide nanoparticles formed (e.g., from FF or YF peptides) in cold water (cold deionized water) as shown in Example 2 were stable for about 2 hours before they eventually disaggregated as determined by DLS. To increase the stability of FF and YF, a solvent injection protocol was used. That is, the peptide constructs were dissolved in an organic solvent (e.g., but not limited to, DMSO, acetone, ethanol, dioxane, acetonitrile, methanol, and THF) at ˜150 mg/ml and a fixed volume was then injected in cold saline solution (e.g., but not limited to, ˜0.9% NaCl) while stirring. Different concentrations and/or types of salts could be used to prepare the saline solution, depending on the solubility of the peptide constructs in the respective solution. In some embodiments, any buffer solution such as PBS, acetate, succinate and citrate buffer could be used instead. The resulting particles size varied with peptide concentration from about 5 mg/ml to about 50 mg/ml with low polydispersities (FIGS. 4A-4B). By addition of 0.9% NaCl in the cold solution, the stability of the particles was increased from about 2 h to about 24 h as determined by DLS. […] Thus, in one embodiment, the average size of the nanoparticles can be controlled by simply varying the temperature of the formulation buffere, e.g., at room temperature or under cold ˜2-4° C. conditions.
In some embodiments, the nanoparticles can be formed by a process, which comprises dissolving an isolated peptide described herein (e.g., example peptides shown in Tables 1-2) in organic solvents such as DMSO at high concentration (e.g., about 400 mg/mL) and injecting a fixed volume of the dissolved peptides in cold saline (e.g., ˜0.9% sodium chloride solution) while stirring. The cold precipitation method (e.g., using a cold saline medium) can more efficiently induce peptide self-assembly. In some embodiments, the cold precipitation method (e.g., using a cold saline medium) can improve particle stability, e.g., from about 2 hours (e.g., when particles were formed by simply mixing the isolated peptides at a specified temperature) to about 24 hours (where the particles were formed by cold saline precipitation method described herein).
To further improve stability of nanoparticles, stability of the resulting particles was investigated as a function of amino acid residue at the X4 position as indicated in Table 1 (entry 3-7) and X4 position as indicated in FIG. 1. […] For example, as shown in FIG. 4E and FIG. 5, the particles self-assembled from the YF peptides or Y peptides can be stable for at least about 120 hours or longer when formed in the formulation buffer (e.g., ˜0.9% NaCl), e.g., using the cold precipitation method described earlier. Without wishing to be bound by theory, this increase in stability is likely, in part, due to the tyrosine residue at position X4 that can be stabilized by the free amine at the N-terminus.

[3] = Dynamic light scattering (DLS) size distribution of self-assembled peptide nanoparticles; type: physicochemical; settings: for average hydrodynamic diameter / polydispersity index (PDI): DLS
Text: Self-assembling peptides (e.g., FF and YF peptides as shown in Table 1 and FIG. 1, each with a sequence of 10 amino acids in length) were each prepared by FMOC solid-phase peptide synthesis, for example, on Wang resin and cleaved from the resin with a solution mixture of trifluoroacetic acid/triisopropylsilane/water in a volume ratio of […]. The synthesized peptides were then purified by reversed phase HPLC. These peptide constructs were selected to represent bulky aliphatic and aromatic amino acid residues. […] The peptide concentration of the resulting mixture was about 2.5 mg/mL to about 100 mg/mL. The mixture was stirred at about 200 rpm to about 300 rpm for about 5 mins. The stirring speed can be varied to control size homogeneity. […] Accordingly, the size of the nanostructures can be, at least in part, controlled by the sequence of the amino acid construct.
as §1, with “That is, the peptide constructs were dissolved in an organic solvent (e.g., but not limited to, DMSO, acetone, ethanol, dioxane, acetonitrile, methanol, and THF) at ˜150 mg/ml and a fixed volume was then injected in cold saline solution (e.g., but not limited to, ˜0.9% NaCl) while stirring.” left out
Each peptide was dissolved in distilled deionized water at varying concentrations, which can, in part, control particle size. Mixtures of ˜80 mg/mL, ˜50 mg/mL, and ˜20 mg/mL peptide concentration were each stirred vigorously (e.g., using a magnetic stirrer) for about 10 mins at room temperature or at about 4° C. Nanoparticles were measured, e.g., by dynamic light scattering (DLS), to be in the range from about 50 nm to about 2 μm.
A zeta particle size analyzer (Malvern instruments, UK) operating with a HeNe laser, and a 173° back scattering detector was used to determine the size distribution of the nanoparticles. Samples were prepared at 80 mg/mL, 50 mg/mL, and 20 mg/mL in water and measured directly by dynamic light scattering measurement (n=3 per condition). Malvern instrument software or Microsoft Excel was used to analyze the acquired data.

[4] = Biodistribution of Alexa 750-loaded nanoparticles after tail vein injection; type: in vivo; settings: mice
Procedure: FIG. 11 is a line graph showing biodistribution of YF nanoparticles in mice within 2 hours after injection. An imaging dye (e.g., Alexa 750 dye) was encapsulated in the YF nanoparticles and administered to the mice by tail vein injection.
Chemical and physical properties of the resulting nanoparticles, including size, surface charge, and surface chemistry, are important factors that determine their pharmacodynamics and biodistribution, which define their efficacy to deliver an agent and toxicity. Accordingly, it was next sought to determine tissue distribution of these resulting nanoparticles. Specifically, Alexa 750 dye was encapsulated in YF nanoparticles and administered to mice by tail vein injection. At intervals of 0.5, 1.0, and 2.0 hours, the animals were euthanized, then dissected. […] These nanoparticles can potentially eliminate the need for expensive spraying approach in aerosol delivery.

[5] = Encapsulation of hydrophobic (Nile Red) and hydrophilic (Calcein) dyes in peptide nanoparticles; type: physicochemical; settings: YF ~25 mg/mL in cold saline
Procedure: Nile Red (NR) a hydrophobic dye and Calcein, hydrophilic dyes were used as model agents for hydrophobic and hydrophilic drugs or molecules, respectively. For example, YF was dissolved in DMSO to make a stock concentration of about 380 mg/mL. Stock solutions of Nile red and Calcein dyes were each prepared in DMSO at about 3 mg/ml and about 20 mg/mL, respectively. A mixture of YF (about 380 mg/ml) and at least one model agent (e.g., Nile red (0.28 mg/mL) and/or Calcein (1.8 mg/mL)) was added to a formulation buffer, e.g., cold saline (e.g., about 0.3 mL) and mixed, e.g., by manual pipetting. The final ratios of peptide to dyes were ˜25 mg/ml to ˜0.02 mg/ml (YF:NR) and ˜25 mg/mL to ˜0.124 mg/mL (YF:calcein). In some embodiments, about 20-30% of each dye was encapsulated within self-assembling YF nanoparticles.
The peptide nanostructures (e.g., peptide nanoparticles (NP)) were visualized by fluorescence microscopy using the hydrophobic dye, Nile Red, which has a strong emission at […] when present in a lipid-rich environment and excited at ˜485 nm, or the hydrophilic dyes, calcein (excitation/emission 495 nm/515 nm) and FITC-Dextran (excitation/emission 495 nm/521 nm). […] An aliquot of ˜10 μL solution was then added to a glass cover slip for visualization using fluorescence microscopy (TIRF DM1600).

[6] = formed in cold saline, FIG. 4E, FIG. 5
[7] = formed in cold saline (~0.9% NaCl), solvent injection, FF ~50 mg/mL, YF ~5 mg/mL
[8] = formed in cold saline, FF ~50 mg/mL, YF ~5 mg/mL
[9] = self-assembled in cold deionized water

CC(C)[C@H](N)C(=O)N1CCC[C@H]1C(=O)NCC(=O)N[C@@H](Cc1ccc(O)cc1)C(=O)NCC(=O)O [Y, VPGYG] (H-VPGYG-OH)
viability [1]: > 80%
particle stability [2, 6]: ≥ 5 days

CC(C)[C@H](N)C(=O)N1CCC[C@H]1C(=O)NCC(=O)N[C@@H](Cc1ccc(O)cc1)C(=O)NCC(=O)N[C@H](C(=O)N1CCC[C@H]1C(=O)NCC(=O)N[C@@H](Cc1ccccc1)C(=O)NCC(=O)O)C(C)C [YF, VPGYGVPGFG] (H-VPGYGVPGFG-OH)
viability [1]: > 80%
average hydrodynamic diameter [3, 7]: 600 nm
polydispersity index (PDI) [3, 8]: 0.07
average hydrodynamic diameter [3, 9]: ~900 nm
polydispersity index (PDI) [3, 9]: 0.33
tissue distribution: lungs ([4]; 0.5-2.0 hours): greater deposition of the nanoparticles in the lungs
time high fluorescence levels detected and maintained in vivo ([4]; Alexa 750 encapsulated, FIG. 11): at least 2 hours
tissue distribution: brain / blood-brain-barrier ([4]; fluorescence in brain): cross the blood-brain-barrier and deposit in the brain
time particles stable before disaggregation [2]: about 2 hours
particle stability [2, 6]: at least 5 days
fraction of each dye encapsulated [5]: 20-30%

IPGYG
size distribution (monodispersity) relative to other substituted peptides ([3]; DMSO stock ~380 mg/mL injected in cold saline ~2-4 °C, final ~25 mg/mL, FIG. 14): more monodisperse

VPGFGVPGFG [FF]
average hydrodynamic diameter [3, 7]: ~191 nm
polydispersity index (PDI) [3, 8]: 0.18
polydispersity index (PDI) [3, 9]: 0.27
time particles stable before disaggregation [2]: about 2 hours
particle stability ([2]; formed in cold saline (~0.9% NaCl), cold precipitation method): ~1 days

VPGFGVPGWG [FW]
particle stability compared to FF and YF constructs [2]: did not show a significant increase in stability

VPGFGVPGYG [FY]
particle stability compared to FF and YF constructs [2]: did not show a significant increase in stability

VPGWGVPGFG [WF]
particle stability compared to FF and YF constructs [2]: did not show a significant increase in stability
